In the kinase profiling compilation of Christmann-Franck et al. (2016):

Tests used:
Assay in all cases: radiometric filter-binding kinase assay, Kinase HotSpot
Conditions in all cases: compound 0.5 µM; ATP 10 µM
ACVR1 (human) = ACVR1 (human) (UniProt Q04771)
ACVRL1 (human) = ACVRL1 (human) (UniProt P37023)
BMX (human) = BMX (human) (UniProt P51813)
BTK (human) = BTK (human) (UniProt Q06187)
CAMKK1 (human) = CAMKK1 (human) (UniProt Q8N5S9)
CDC42BPB (human) = CDC42BPB (human) (UniProt Q9Y5S2)
CDK4 CCND3 (human) = CDK4 CCND3 (human) (UniProt P30281+P11802)
CLK1 (human) = CLK1 (human) (UniProt P49759)
CSNK1E (human) = CSNK1E (human) (UniProt P49674)
DCLK2 (human) = DCLK2 (human) (UniProt Q8N568)
DDR2 (human) = DDR2 (human) (UniProt Q16832)
DYRK1B (human) = DYRK1B (human) (UniProt Q9Y463)
EPHB4 (human) = EPHB4 (human) (UniProt P54760)
FES (human) = FES (human) (UniProt P07332)
FLT3 (human) = FLT3 (human) (UniProt P36888)
GSG2 (human) = GSG2 (human) (UniProt Q8TF76)
INSR (human) = INSR (human) (UniProt P06213)
JAK3 JH1 JH2 (human) = JAK3 JH1 JH2 (human) (UniProt P52333)
LCK (human) = LCK (human) (UniProt P06239)
MAP3K14 (human) = MAP3K14 (human) (UniProt Q99558)
MAPK13 (human) = MAPK13 (human) (UniProt O15264)
MKNK2 (human) = MKNK2 (human) (UniProt Q9HBH9)
MYLK2 (human) = MYLK2 (human) (UniProt Q9H1R3)
NEK11 (human) = NEK11 (human) (UniProt Q8NG66)
NEK9 (human) = NEK9 (human) (UniProt Q8TD19)
PASK (human) = PASK (human) (UniProt Q96RG2)
PHKG2 (human) = PHKG2 (human) (UniProt P15735)
PIM1 (human) = PIM1 (human) (UniProt P11309)
PLK1 (human) = PLK1 (human) (UniProt P53350)
PRKCA (human) = PRKCA (human) (UniProt P17252)
PRKCE (human) = PRKCE (human) (UniProt Q02156)
PRKCH (human) = PRKCH (human) (UniProt P24723)
PRKCZ (human) = PRKCZ (human) (UniProt Q05513)
PTK6 (human) = PTK6 (human) (UniProt Q13882)
RET (human) = RET (human) (UniProt P07949)
RPS6KA4 KD2 (human) = RPS6KA4 KD2 (human) (UniProt O75676)
RPS6KB2 (human) = RPS6KB2 (human) (UniProt Q9UBS0)
SRPK3 (human) = SRPK3 (human) (UniProt Q9UPE1)
STK17A (human) = STK17A (human) (UniProt Q9UEE5)
STK25 (human) = STK25 (human) (UniProt O00506)
ULK2 (human) = ULK2 (human) (UniProt Q8IYT8)
PAK2 (human) = PAK2 (human) (UniProt Q13177)

Sequence of JAK3 JH1 JH2 (human) (P52333 whole entry, looked up): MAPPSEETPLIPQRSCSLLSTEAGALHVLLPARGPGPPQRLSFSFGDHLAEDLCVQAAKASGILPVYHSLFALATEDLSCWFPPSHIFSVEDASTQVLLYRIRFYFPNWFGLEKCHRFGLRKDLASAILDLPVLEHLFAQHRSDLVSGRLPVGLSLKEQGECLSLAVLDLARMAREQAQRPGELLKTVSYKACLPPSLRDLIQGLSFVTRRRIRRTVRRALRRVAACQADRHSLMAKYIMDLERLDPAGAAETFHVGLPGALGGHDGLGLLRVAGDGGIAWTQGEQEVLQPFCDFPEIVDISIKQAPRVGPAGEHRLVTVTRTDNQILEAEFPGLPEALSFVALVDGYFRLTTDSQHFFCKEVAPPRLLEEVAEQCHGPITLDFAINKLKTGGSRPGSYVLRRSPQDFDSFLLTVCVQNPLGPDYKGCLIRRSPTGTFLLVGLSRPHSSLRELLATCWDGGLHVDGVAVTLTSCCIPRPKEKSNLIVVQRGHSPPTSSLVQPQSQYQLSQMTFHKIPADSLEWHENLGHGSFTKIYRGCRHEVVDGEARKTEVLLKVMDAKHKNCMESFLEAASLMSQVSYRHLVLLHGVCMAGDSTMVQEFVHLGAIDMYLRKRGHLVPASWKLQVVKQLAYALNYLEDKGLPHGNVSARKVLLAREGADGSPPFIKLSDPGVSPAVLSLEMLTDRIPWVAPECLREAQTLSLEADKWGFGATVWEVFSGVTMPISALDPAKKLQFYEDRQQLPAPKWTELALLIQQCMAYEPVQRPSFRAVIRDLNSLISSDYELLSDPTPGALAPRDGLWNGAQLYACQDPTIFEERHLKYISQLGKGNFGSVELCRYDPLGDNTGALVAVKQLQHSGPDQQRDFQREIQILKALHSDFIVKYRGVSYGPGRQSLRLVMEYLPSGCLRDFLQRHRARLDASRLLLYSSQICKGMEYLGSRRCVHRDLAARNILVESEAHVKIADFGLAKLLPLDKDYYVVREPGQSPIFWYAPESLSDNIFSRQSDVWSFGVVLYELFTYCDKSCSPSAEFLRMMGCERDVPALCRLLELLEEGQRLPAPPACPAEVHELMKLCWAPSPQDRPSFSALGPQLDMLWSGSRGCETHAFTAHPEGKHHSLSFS
Sequence of NEK9 (human) (Q8TD19 whole entry, looked up): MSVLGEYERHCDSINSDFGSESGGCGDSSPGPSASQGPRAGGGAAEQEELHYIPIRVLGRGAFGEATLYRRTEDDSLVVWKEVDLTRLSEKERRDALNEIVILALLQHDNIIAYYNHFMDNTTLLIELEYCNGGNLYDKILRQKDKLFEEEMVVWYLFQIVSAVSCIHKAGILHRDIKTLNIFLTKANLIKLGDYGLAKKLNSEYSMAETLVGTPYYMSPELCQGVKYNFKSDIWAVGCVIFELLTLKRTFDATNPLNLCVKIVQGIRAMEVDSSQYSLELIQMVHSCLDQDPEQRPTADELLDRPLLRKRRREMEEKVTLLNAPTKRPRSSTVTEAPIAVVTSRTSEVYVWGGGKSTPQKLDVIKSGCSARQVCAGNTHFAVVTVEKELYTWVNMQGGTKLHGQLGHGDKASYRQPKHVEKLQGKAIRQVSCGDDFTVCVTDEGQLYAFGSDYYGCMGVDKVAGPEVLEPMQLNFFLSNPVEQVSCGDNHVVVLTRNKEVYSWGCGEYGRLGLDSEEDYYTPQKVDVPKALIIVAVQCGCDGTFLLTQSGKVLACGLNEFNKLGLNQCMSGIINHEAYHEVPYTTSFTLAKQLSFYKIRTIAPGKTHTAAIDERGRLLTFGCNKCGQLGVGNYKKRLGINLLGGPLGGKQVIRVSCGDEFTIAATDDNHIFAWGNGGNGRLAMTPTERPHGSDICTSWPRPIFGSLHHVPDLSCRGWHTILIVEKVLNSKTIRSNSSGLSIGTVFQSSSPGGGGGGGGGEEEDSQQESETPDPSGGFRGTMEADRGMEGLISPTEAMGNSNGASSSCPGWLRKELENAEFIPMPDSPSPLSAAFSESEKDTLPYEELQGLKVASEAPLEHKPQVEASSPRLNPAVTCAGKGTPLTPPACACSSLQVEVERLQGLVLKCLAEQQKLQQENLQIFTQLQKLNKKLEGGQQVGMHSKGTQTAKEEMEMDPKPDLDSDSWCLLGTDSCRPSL
Sequence of PRKCE (human) (Q02156 whole entry, looked up): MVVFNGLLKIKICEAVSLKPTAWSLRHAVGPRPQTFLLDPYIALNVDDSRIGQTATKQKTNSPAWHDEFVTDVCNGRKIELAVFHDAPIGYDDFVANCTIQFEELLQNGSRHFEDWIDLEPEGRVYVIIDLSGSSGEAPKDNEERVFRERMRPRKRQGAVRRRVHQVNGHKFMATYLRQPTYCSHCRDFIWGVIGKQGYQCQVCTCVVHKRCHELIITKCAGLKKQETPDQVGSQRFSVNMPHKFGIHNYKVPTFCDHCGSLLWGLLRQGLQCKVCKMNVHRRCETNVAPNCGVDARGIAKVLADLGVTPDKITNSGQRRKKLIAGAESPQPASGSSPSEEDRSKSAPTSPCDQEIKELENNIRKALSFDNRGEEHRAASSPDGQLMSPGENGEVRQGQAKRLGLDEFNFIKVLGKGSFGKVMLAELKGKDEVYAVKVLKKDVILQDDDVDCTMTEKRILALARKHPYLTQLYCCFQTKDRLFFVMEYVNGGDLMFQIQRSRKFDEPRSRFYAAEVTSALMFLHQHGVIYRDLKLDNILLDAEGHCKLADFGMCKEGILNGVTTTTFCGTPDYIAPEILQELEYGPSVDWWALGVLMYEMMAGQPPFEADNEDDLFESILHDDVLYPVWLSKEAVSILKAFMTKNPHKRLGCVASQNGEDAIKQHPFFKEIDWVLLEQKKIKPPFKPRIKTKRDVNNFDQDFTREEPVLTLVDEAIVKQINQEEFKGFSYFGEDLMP
Sequence of MKNK2 (human) (Q9HBH9 whole entry, looked up): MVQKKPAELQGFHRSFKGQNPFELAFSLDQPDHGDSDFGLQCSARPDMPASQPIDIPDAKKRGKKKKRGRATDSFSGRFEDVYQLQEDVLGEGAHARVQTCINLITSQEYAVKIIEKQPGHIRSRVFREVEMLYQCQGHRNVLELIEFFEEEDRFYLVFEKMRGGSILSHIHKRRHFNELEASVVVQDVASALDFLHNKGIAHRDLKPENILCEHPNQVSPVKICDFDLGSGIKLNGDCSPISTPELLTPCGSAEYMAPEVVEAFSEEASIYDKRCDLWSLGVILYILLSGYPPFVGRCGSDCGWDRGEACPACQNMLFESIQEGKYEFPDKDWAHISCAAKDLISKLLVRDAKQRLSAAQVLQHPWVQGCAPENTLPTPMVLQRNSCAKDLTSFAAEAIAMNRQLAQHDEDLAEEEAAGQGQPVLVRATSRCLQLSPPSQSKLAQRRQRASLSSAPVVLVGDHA
Sequence of RET (human) (P07949 whole entry, looked up): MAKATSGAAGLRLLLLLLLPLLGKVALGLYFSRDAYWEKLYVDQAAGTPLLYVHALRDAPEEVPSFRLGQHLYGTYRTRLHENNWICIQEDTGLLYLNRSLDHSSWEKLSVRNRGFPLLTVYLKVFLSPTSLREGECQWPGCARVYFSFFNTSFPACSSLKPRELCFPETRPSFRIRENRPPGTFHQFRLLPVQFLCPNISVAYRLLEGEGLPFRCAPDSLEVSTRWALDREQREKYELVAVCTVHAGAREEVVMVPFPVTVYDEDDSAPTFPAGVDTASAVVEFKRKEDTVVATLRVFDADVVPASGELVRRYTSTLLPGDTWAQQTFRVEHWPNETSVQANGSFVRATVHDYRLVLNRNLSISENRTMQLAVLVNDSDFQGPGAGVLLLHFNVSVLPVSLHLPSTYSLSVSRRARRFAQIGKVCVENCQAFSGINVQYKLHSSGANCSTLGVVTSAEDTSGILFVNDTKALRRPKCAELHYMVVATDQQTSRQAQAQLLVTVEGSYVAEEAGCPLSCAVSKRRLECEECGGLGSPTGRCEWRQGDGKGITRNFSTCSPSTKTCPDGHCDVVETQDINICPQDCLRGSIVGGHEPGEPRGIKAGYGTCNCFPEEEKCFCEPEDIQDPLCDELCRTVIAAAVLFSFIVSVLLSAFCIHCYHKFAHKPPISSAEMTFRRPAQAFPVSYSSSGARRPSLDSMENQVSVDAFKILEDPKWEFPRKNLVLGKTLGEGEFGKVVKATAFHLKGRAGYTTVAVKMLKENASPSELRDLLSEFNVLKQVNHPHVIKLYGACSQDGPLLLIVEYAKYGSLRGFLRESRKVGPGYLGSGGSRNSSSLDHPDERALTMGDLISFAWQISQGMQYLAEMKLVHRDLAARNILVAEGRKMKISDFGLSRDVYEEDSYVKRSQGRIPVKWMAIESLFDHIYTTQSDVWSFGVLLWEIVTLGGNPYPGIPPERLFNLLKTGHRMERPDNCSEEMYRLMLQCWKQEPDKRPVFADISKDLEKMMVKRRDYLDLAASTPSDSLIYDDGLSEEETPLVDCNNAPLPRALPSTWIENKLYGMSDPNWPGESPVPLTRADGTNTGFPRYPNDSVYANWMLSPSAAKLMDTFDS

`O=C1Nc2ccccc2/C1=C\c1c(Cl)[nH]c2ccccc12` gave a residual activity (ACVR1 (human)) of 100%, a residual activity (ACVRL1 (human)) of 99.8% and a residual activity (BMX (human)) of 99.8%. For the same molecule, the residual activity (BTK (human)) was 94.6%, the residual activity (CAMKK1 (human)) was 116% and the residual activity (CDC42BPB (human)) was 102%. It also gave a residual activity (CDK4 CCND3 (human)) of 97.4%, a residual activity (CLK1 (human)) of 103% and a residual activity (CSNK1E (human)) of 87.8%. For the same molecule, the residual activity (DCLK2 (human)) was 93.5%, the residual activity (DDR2 (human)) was 92.7% and the residual activity (DYRK1B (human)) was 99.3%. It also gave a residual activity (EPHB4 (human)) of 90.2%, a residual activity (FES (human)) of 96.6% and a residual activity (FLT3 (human)) of 80.5%. It also gave a residual activity (GSG2 (human)) of 91%, a residual activity (INSR (human)) of 91.2% and a residual activity (JAK3 JH1 JH2 (human)) of 102%. For the same molecule, the residual activity (LCK (human)) was 95.5%, the residual activity (MAP3K14 (human)) was 92.6% and the residual activity (MAPK13 (human)) was 98.9%. It also gave a residual activity (MKNK2 (human)) of 93.5%, a residual activity (MYLK2 (human)) of 94.6% and a residual activity (NEK11 (human)) of 98.5%. The residual activity (NEK9 (human)) was 94.2%, the residual activity (PASK (human)) was 89.3% and the residual activity (PHKG2 (human)) was 84.2%. It also gave a residual activity (PIM1 (human)) of 88.5%, a residual activity (PLK1 (human)) of 95.4% and a residual activity (PRKCA (human)) of 63.2%. For the same molecule, the residual activity (PRKCE (human)) was 95.1%, the residual activity (PRKCH (human)) was 73.6% and the residual activity (PRKCZ (human)) was 103%. The residual activity (PTK6 (human)) was 76.9%, the residual activity (RET (human)) was 93% and the residual activity (RPS6KA4 KD2 (human)) was 93.6%. The residual activity (RPS6KB2 (human)) was 99.4%, the residual activity (SRPK3 (human)) was 97.1% and the residual activity (STK17A (human)) was 95.2%. It also gave a residual activity (STK25 (human)) of 97.7% and a residual activity (ULK2 (human)) of 99.7%.

In the case of `COc1cc2ncnc(Nc3ccc(F)c(Cl)c3)c2cc1OCCCN1CCOCC1`, the residual activity (ACVR1 (human)) is reported as 106%, the residual activity (ACVRL1 (human)) is reported as 96.9% and the residual activity (BMX (human)) is reported as 102%. The residual activity (BTK (human)) was 60.6%, the residual activity (CAMKK1 (human)) was 93.8% and the residual activity (CDK4 CCND3 (human)) was 101%. The residual activity (CLK1 (human)) was 105%, the residual activity (CSNK1E (human)) was 106% and the residual activity (DCLK2 (human)) was 101%. It also gave a residual activity (DDR2 (human)) of 117%, a residual activity (DYRK1B (human)) of 91.9% and a residual activity (FLT3 (human)) of 56.5%. The residual activity (GSG2 (human)) was 84%, the residual activity (INSR (human)) was 107% and the residual activity (JAK3 JH1 JH2 (human)) was 96.6%. It also gave a residual activity (MAP3K14 (human)) of 104%, a residual activity (MAPK13 (human)) of 94.7% and a residual activity (MKNK2 (human)) of 54.1%. The residual activity (MYLK2 (human)) was 99.2%, the residual activity (NEK11 (human)) was 109% and the residual activity (NEK9 (human)) was 99.3%. For the same molecule, the residual activity (PAK2 (human)) was 100%, the residual activity (PASK (human)) was 97.9% and the residual activity (PHKG2 (human)) was 93.9%. It also gave a residual activity (PIM1 (human)) of 86.4%, a residual activity (PLK1 (human)) of 97% and a residual activity (PRKCA (human)) of 93.6%. For the same molecule, the residual activity (PRKCE (human)) was 97.3%, the residual activity (PRKCZ (human)) was 92.5% and the residual activity (PTK6 (human)) was 77.2%. The residual activity (RET (human)) was 76.9%, the residual activity (RPS6KA4 KD2 (human)) was 104% and the residual activity (RPS6KB2 (human)) was 101%. For the same molecule, the residual activity (SRPK3 (human)) was 103%, the residual activity (STK17A (human)) was 96% and the residual activity (STK25 (human)) was 97.4%. It also gave a residual activity (ULK2 (human)) of 104%.

In the case of `Nc1nc(Nc2ccc(S(N)(=O)=O)cc2)nn1C(=O)c1c(F)cccc1F`, the residual activity (ACVR1 (human)) is reported as 104%, the residual activity (ACVRL1 (human)) is reported as 88.5% and the residual activity (BTK (human)) is reported as 87.1%. For the same molecule, the residual activity (CAMKK1 (human)) was 86.4%, the residual activity (CDC42BPB (human)) was 96% and the residual activity (CDK4 CCND3 (human)) was 34.7%. For the same molecule, the residual activity (CLK1 (human)) was 85.1%, the residual activity (CSNK1E (human)) was 96.9% and the residual activity (DCLK2 (human)) was 85.3%. For the same molecule, the residual activity (DDR2 (human)) was 113%, the residual activity (DYRK1B (human)) was 87.6% and the residual activity (EPHB4 (human)) was 81%. For the same molecule, the residual activity (FLT3 (human)) was 44.3%, the residual activity (GSG2 (human)) was 107% and the residual activity (INSR (human)) was 94.9%. The residual activity (JAK3 JH1 JH2 (human)) was 8.5%, the residual activity (LCK (human)) was 87.9% and the residual activity (MAP3K14 (human)) was 106%. It also gave a residual activity (MAPK13 (human)) of 94.8%, a residual activity (MKNK2 (human)) of 95.9% and a residual activity (MYLK2 (human)) of 96.1%. For the same molecule, the residual activity (NEK11 (human)) was 95.8%, the residual activity (NEK9 (human)) was 82.2% and the residual activity (PASK (human)) was 91.1%. It also gave a residual activity (PHKG2 (human)) of 102%, a residual activity (PIM1 (human)) of 97.6% and a residual activity (PLK1 (human)) of 97.5%. The residual activity (PRKCA (human)) was 55.7%, the residual activity (PRKCE (human)) was 97.2% and the residual activity (PRKCH (human)) was 100%. The residual activity (PRKCZ (human)) was 99.9%, the residual activity (PTK6 (human)) was 83.9% and the residual activity (RET (human)) was 54.1%. For the same molecule, the residual activity (RPS6KA4 KD2 (human)) was 90.2%, the residual activity (RPS6KB2 (human)) was 104% and the residual activity (SRPK3 (human)) was 86.2%. For the same molecule, the residual activity (STK17A (human)) was 83.9%, the residual activity (STK25 (human)) was 82.3% and the residual activity (ULK2 (human)) was 102%.

`C#Cc1cccc(Nc2ncnc3cc(OCCOC)c(OCCOC)cc23)c1` was tested, and the residual activity (ACVR1 (human)) was 101%, the residual activity (ACVRL1 (human)) was 101% and the residual activity (BMX (human)) was 100%. For the same molecule, the residual activity (CAMKK1 (human)) was 98.7%, the residual activity (CDC42BPB (human)) was 98.5% and the residual activity (CDK4 CCND3 (human)) was 103%. The residual activity (CLK1 (human)) was 107%, the residual activity (CSNK1E (human)) was 98.2% and the residual activity (DCLK2 (human)) was 102%. The residual activity (DYRK1B (human)) was 93.7%, the residual activity (FES (human)) was 105% and the residual activity (GSG2 (human)) was 80.9%. The residual activity (INSR (human)) was 102%, the residual activity (JAK3 JH1 JH2 (human)) was 91.3% and the residual activity (MAPK13 (human)) was 95%. It also gave a residual activity (NEK11 (human)) of 114%, a residual activity (NEK9 (human)) of 99.5% and a residual activity (PAK2 (human)) of 99.1%. The residual activity (PASK (human)) was 97.4%, the residual activity (PHKG2 (human)) was 97.9% and the residual activity (PIM1 (human)) was 97%. For the same molecule, the residual activity (PLK1 (human)) was 100%, the residual activity (PRKCA (human)) was 88.6% and the residual activity (PRKCH (human)) was 116%. The residual activity (PRKCZ (human)) was 92.3%, the residual activity (PTK6 (human)) was 85.9% and the residual activity (RET (human)) was 48.6%. It also gave a residual activity (RPS6KB2 (human)) of 103%, a residual activity (SRPK3 (human)) of 101% and a residual activity (STK17A (human)) of 99.7%. It also gave a residual activity (STK25 (human)) of 99.4% and a residual activity (ULK2 (human)) of 98.7%.

Molecule `CC(C)(C)c1nc2c3ccc(F)cc3c3c(=O)[nH]ccc3c2[nH]1` has a residual activity (ACVR1 (human)) of 135%, a residual activity (ACVRL1 (human)) of 105% and a residual activity (BMX (human)) of 71.9%. It also gave a residual activity (BTK (human)) of 80.5%, a residual activity (CAMKK1 (human)) of 81.4% and a residual activity (CDC42BPB (human)) of 96.8%. The residual activity (CDK4 CCND3 (human)) was 95.2%, the residual activity (CLK1 (human)) was 81.6% and the residual activity (CSNK1E (human)) was 85.6%. For the same molecule, the residual activity (DCLK2 (human)) was 65.8%, the residual activity (DYRK1B (human)) was 88.2% and the residual activity (EPHB4 (human)) was 88.2%. For the same molecule, the residual activity (FES (human)) was 78%, the residual activity (FLT3 (human)) was 13.6% and the residual activity (GSG2 (human)) was 67.2%. The residual activity (INSR (human)) was 80.6%, the residual activity (JAK3 JH1 JH2 (human)) was 0.445% and the residual activity (MAP3K14 (human)) was 71.3%. It also gave a residual activity (MAPK13 (human)) of 104%, a residual activity (MKNK2 (human)) of 62% and a residual activity (MYLK2 (human)) of 67.2%. It also gave a residual activity (NEK11 (human)) of 92.4%, a residual activity (NEK9 (human)) of 71.7% and a residual activity (PAK2 (human)) of 88.8%. The residual activity (PASK (human)) was 83.2%, the residual activity (PHKG2 (human)) was 57.3% and the residual activity (PIM1 (human)) was 38.6%. For the same molecule, the residual activity (PLK1 (human)) was 10.5%, the residual activity (PRKCA (human)) was 65.6% and the residual activity (PRKCE (human)) was 51.4%. The residual activity (PRKCH (human)) was 81.5%, the residual activity (PRKCZ (human)) was 93.2% and the residual activity (PTK6 (human)) was 88%. For the same molecule, the residual activity (RET (human)) was 18.3%, the residual activity (RPS6KA4 KD2 (human)) was 44.7% and the residual activity (RPS6KB2 (human)) was 102%. It also gave a residual activity (SRPK3 (human)) of 58.6%, a residual activity (STK17A (human)) of 6.42% and a residual activity (STK25 (human)) of 86.9%. For the same molecule, the residual activity (ULK2 (human)) was 41.5%.
